Results as given in patent US7919579B2, “Imaging and therapeutic targeting of prostate and bladder tissues” (The Board of Regents of the University of Texas System, priority 2006, dated 2011).
Values belong to the molecule of their own block, whether it stands above or below them. No end group written: not given here. *: point of attachment. FITC = O=C1OC2(c3ccc(O)cc3Oc3cc(O)ccc32)c2ccc(NC(=S)*)cc21

Tests used:
[1] = tested on: R11 uptake by bladder cancer cells; assay: inhibitor and GAG competition of R11 uptake in bladder cancer cells; format: cell-based, human; conditions: for competition of R11 uptake by GAGs: various concentrations of GAG with 5 μM R11, 30 min
Experimental: FIGS. 10A-C—Determination of primary interaction molecule for R11 uptake in several bladder cancer cells. Human bladder cancer cells were pre-treated with various inhibitors (FIG. 10A: EIPA; FIG. 10B: Toxin B) 2 h and then incubated with 5 μM CPPs for 30 min before harvesting cell for determining cellular uptake. For competition assay, various concentrations of GAG's and 5 μM R9, R11, or R13 were added into cells for 30 min before harvesting cell for determining cellular uptake (FIG. 10C). Relative uptake was determined based on control (=1).
In order to define R11 as a bladder-specific molecular probe, it is critical to unveil the mechanism of R11 uptake. […] Furthermore, they examined a variety of glycosaminoglycans (GAGs) commonly detected in bladder wall (De Klerk, 1985) for their abilities to block the R11 uptake.

[2] = in vitro; conditions: human
Experimental: (§4) The fluorescence-labeled CPPs (TAT, Penetratin (PENE), KALA, R11 & K11) were synthesized and tested in a variety of PCa cells (LNCaP, C4-2, LAPC4 and PC3 cells). […] Different concentrations of each CPP were incubated with cells for 30 minutes prior to cell harvesting. Relative FITC intensity was determined by normalizing fluorescence intensity of each treatment with its cell numbers. […] R11 (5 μM) was incubated with cells at the indicated time. Relative FITC intensity was determined by normalizing fluorescence intensity of each treatment with its cell numbers. […] Cells were pulsed with R11 (5 μM) chased for the indicated time and the percentage of uptake was used time zero (=100%). Each column or data point represents mean±SD in triplicate. […]
(§5) Therefore, the dynamics of R11 uptake was evaluated by incubating cells with 5 μM R11 for 5, 10 and 30 minutes. […]
(§6) To determine the uptake efficiency of each CPP, different concentrations (0.1, 1, 5 μM) of FITC-tagged peptides were incubated with cells for 30 minutes (or different time for the time course study) then cells were washed twice with PBS and trypsinized. After washing with PBS twice, the total cell number was determined and cells were lysed in Tris Buffer (50 mM Tris-HCl, pH 7.5, 150 mM NaCl, 5 mM EDTA, 1% Triton X100). The fluorescence intensity was examined by fluorometer (excitation 490-500 nm; emission 515-525 nm). […]

[3] = set-up: species or system nude mice; conditions: in vivo
Experimental: FIGS. 9A-C—Comparison of delivery efficiency between different length of polyarginines. (FIG. 9A) In vitro uptake by bladder cancer cell lines 30 min after incubation. Relative uptake was determined by fluorometer and normalized using R11 5 μM (=1) in each cell line. (FIG. 9B) Animal study (n=3; 24 h post injection). The peptides (5 nmole/gram body weight) were administered via intravenous (IV) route. SV: seminal vesicle; CG: coagulation gland. (FIG. 9C) The tissue localization of FITC-R11 in mouse bladder.
Although the cellular uptake mechanism of CPPs is not completely understood, they were not supposed to have cell specificity. Also, the efficiency of CPPs delivery varies among different species and length. For example, Mai et al. (2002) has reported that the 8-mer and 10-mer of polylysine have higher cell permeable efficiency for a broad range of cell types than polyarginine does. However, the inventors observed that polyarginine is more efficiency than polylysine in bladder cancer cells (FIG. 9A). In order to further determine whether R11 is the best polyarginine for bladder cancer cells, the inventors examined the uptake efficiency using different lengths of polyarginine.

[4] = tested on: LNCaP; conditions: human, 5 μM
Experimental: as §4, §5, §6

[5] = tested on: PC3; conditions: human, 5 μM
Experimental: as §4, §5, §6

[6] = tested on: C4-2; conditions: human, 5 μM
Experimental: as §4, §5, §6

[7] = tested on: lung metastasis of T24 bladder cancer; conditions: mouse, in vivo
Experimental: Top right panel, athymic nude mice were chosen based on a similar size of lung metastasis of bladder cancer from BLI were IV injected with 5 nmole FITC-R11 (left) or FITC (right) per gram body weight. Twenty-four hours after injection, whole body imaging (top left panel) or ex vivo imaging (bottom middle and right panel) of lung was carried out with Maestro In-vivo Imaging System (CRI, Inc.). The image shown is one of the representative experiments.

[8] = tested on: LAPC4; conditions: human, 5 μM
Experimental: as §4, §5, §6

[9] = tested on: C4-2 cells; assay: cell growth assay (MTT), serum or DHT-induced proliferation; format: cell-based; conditions: 5 μM peptide, 5% FBS or 10 nM DHT, MTT 4 days
Experimental: (§1) FIGS. 3A-B—Inhibitory effect of R11PPL on serum and androgen-induced cell proliferation of PCa. LNCaP (FIG. 3A) or C4-2 cells (FIG. 3B) were incubated with 5 μM R11PPL, R11AAL or without peptide 3 hours before adding serum or DHT (10 nM) and relative cell number was determined by MTT assay. All the experiments were carried out in quadruplicates and repeated at least twice. Each column represents mean±SD in triplicate.
(§2) Cell growth assay and cell cycle analysis. Cells were plated in 96-well plate at a density of 10^3 per well in T-medium supplemented with 5% charcoal-stripped FBS for overnight. Cells were incubated with or without indicated peptides (5 μM) for 3 hours in the presence of T-medium supplemented with 0.5% charcoal-stripped FBS. Subsequently, cells were replaced with T-medium containing either 5% FBS or 10 nM dihydrotestosterone (DHT). The peptides were changed every 2 days. The cell proliferation was determined 4 days after the initial peptide treatment by using 3-(4,5-dimethylthiazol-2-yl)-2,5-diphenyltetrazolium bromide (MTT) assay (Roche, Indianapolis, Ind.).

[10] = tested on: LNCaP; assay: as above; format: cell-based; conditions: 5 μM peptide, 5% FBS or 10 nM DHT, MTT 4 days
Experimental: as §1, §2

[11] = tested on: PCa cells (LNCaP, C4-2, LAPC4 and PC3); assay: uptake of FITC-tagged CPPs by PCa cells (fluorometer); format: cell-based; conditions: four PCa cells; 30 minutes
Experimental: Cell culture and peptide incubation. All PCa cell lines (LNCaP, C4-2, LAPC4 and PC3) were maintained as described previously (Zhou et al., 2005). To determine the peptide uptake, 1×10^5 cells per well were plated in a 12-well plate. Next day, the culture medium was replaced with RPMI medium supplemented with 0.5% FBS (Invitrogen, Carlsbad, Calif.) containing different concentrations fluorescence (FITC)-tagged peptides and incubation was carried out at the indicated time. For determining cellular location of peptide, cells were cultured overnight in slide chamber at a density of 25×10^4/cm^2. The FITC tagged peptides were incubated for 30 minutes in the presence of RPMI medium supplemented with 0.5% of FBS prior to fluorescence microscopy.
Fluorescence intensity determination and Fluorescence microscopy.
Screening of the most efficient CPP uptake by prostate cancer (PCa) cell lines. To deliver small peptide into target cells, CPP was employed as a delivery system. Five different CPPs were synthesized including TAT (amino acid 49-57), Penetratin (Antennapedia 43-58) (PENE), KALA peptide, poly-arginine (R11) and poly-lysine (K11). All the CPPs were incorporated with a FITC-labeled glycine at their N-terminal ends. […] To determine the uptake quantitatively, fluorometer was used to measure the intensity of each CPP per cell basis. To rule out the possible artifacts such as CPP only associated with the cell surface and the pH variation from different organelles, cells were trypsinized and washed extensively with PBS, and a buffer with neutral pH was used in this experiment. […] In general, the uptake efficiency of five different CPPs tested can be considered as R11>>KALA≧TAT≧PENE≧K11 among four PCa cells.

[12] = tested on: interaction of Grb2 with SOS; assay: in vitro pull down assay, GST-Grb2 (SH3) binding of SOS; conditions: C4-2 cell lysate after EGF; peptide 10, 30, 100 μM
Experimental: (§3) FIGS. 4A-B—Mechanism of action of R11PPL in PCa cells. To determine the function of R11PPL (SEQ ID NO:11) on interaction of Grb2 with SOS, the C4-2 cell lysates were collected after treated with EGF (FIG. 4A). The GST fusion protein with SH3 domain of Grb2 was used for the pull-down assay. The same amount of immobilized GST-Grb2 (SH3) protein (IB:αGST) was incubated with equal amount of cell lysate in addition of no peptide, the increasing amount of control R11AAL (SEQ ID NO:10) or R11PPL (SEQ ID NO:11) peptide as indicated. The binding of SOS was analyzed with Western Blot using SOS1 antibody. DOC-2/DAB2 expression plasmid transfection was used as a positive control. To examine the effect of R11PPL on MAP kinase activity (FIG. 4B), C4-2 cells were incubated with 5 μM R11PPL, R11AAL or R11 (SEQ ID NO:6) peptide 3 hours before adding EGF (10 ng/ml) (top panel) or 5% FBS (bottom panel). Cell lysates were subjected to western blot analysis probed with phosphorylated Erk1 and 2 antibody (αpErk1/2) or total Erk2 antibody (αErk2) used as a loading control. Each experiment has been repeated twice; this graph represents the typical result.
In vitro pull down assay. […] The increasing concentrations of peptide (10, 30, 100 μM) for R11PPL or R11AAL were also added during the incubation. […]

[13] = tested on: MAP kinase (Erk2) activation; assay: Western blot of phosphorylated Erk1/2 in C4-2 cells; format: cell-based
Experimental: as §3
Western blot analysis. Cells were plated in 6-well plates (2×10^5 per well) with T medium containing 5% FBS. […] The protein intensity was detected using an enhanced chemiluminescence detection kit (Amersham, Piscataway, N.J.). […]

Molecule: CCN(c1nc(N)c(C(=O)NC(=N)N)nc1Cl)C(C)C [EIPA]
effect of inhibitor on R11 uptake ([1]; pre-treated 2 h, then 5 μM CPPs 30 min): effectively diminish R11 uptake

half-life at 5 μM [2]: 23 to 24 h
half-life of R11 [4]: 23.4 h
half-life of R11 [5]: 24.0 h
half-life of R11 [6]: 24.1 h
half-life of R11 [8]: 22.8 h
Molecule: N=C(N)NCCC[C@H](NC(=O)[C@H](CCCNC(=N)N)NC(=O)[C@H](CCCNC(=N)N)NC(=O)[C@H](CCCNC(=N)N)NC(=O)[C@H](CCCNC(=N)N)NC(=O)[C@H](CCCNC(=N)N)NC(=O)[C@H](CCCNC(=N)N)NC(=O)[C@H](CCCNC(=N)N)NC(=O)[C@H](CCCNC(=N)N)NC(=O)[C@H](CCCNC(=N)N)NC(=O)[C@H](CCCNC(=N)N)NC(=O)CNC(=S)Nc1ccc2c(c1)C(=O)OC21c2ccc(O)cc2Oc2cc(O)ccc21)C(=O)O [R11, ^FITC-G-R11]
tissue localization in mouse bladder (histologic examination) [3]: presence of R11 in both transitional and stromal cell compartments of bladder
ex vivo fluorescence signal of lung tumor lesion [7]: clear fluorescence signal is visualized in the ex vivo tumor lesion

Molecule: ^FITC-G- RRRRRRRRRRR -GG-FQLRQAALVASRKGE [R11AAL]
serum or DHT-induced cell proliferation [9]: did not exhibit any effect
serum or DHT-induced cell proliferation [10]: did not exhibit any effect
uptake of R11, R11AAL and R11PPL compared [11]: very similar

Molecule: ^FITC-G-KLALKLALKALKAALKLA ({FITC}-GKLALKLALKALKAALKLA) [KALA, KALA peptide, FITC-labeled]
uptake efficiency among five CPPs (rank) [11]: R11>>KALA≧TAT≧PENE≧K11

Molecule: ^FITC-G-RKKRRQRRR (N-terminal FITC-Gly) [TAT, CPP derived from HIV TAT amino acid 49-57, FITC-labeled]
uptake efficiency among five CPPs (rank) [11]: R11>>KALA≧TAT≧PENE≧K11

interaction between Grb2 and SOS [12]: dose-dependent inhibitory effect
Molecule: ^FITC-G-RRRRRRRRRRR-GGG-FQLRQPPLVPSRKGE ({FITC}-GRRRRRRRRRRRGGGFQLRQPPLVPSRKGE) [R11PPL, FITC-R11 conjugated with PPL (DOC-2/DAB2 PR domain) at C-terminus]
serum or DHT-induced cell proliferation [9]: suppressed
serum or DHT-induced cell proliferation [10]: suppressed
serum-induced activation of Erk2 ([13]; 5 μM peptide 3 hours before 5% FBS): suppressed
EGF induced activation of Erk2 ([13]; 5 μM peptide 3 hours before EGF 10 ng/ml): could suppress
uptake of R11, R11AAL and R11PPL compared [11]: very similar

Molecule: dextran sulfate
competition of R11 uptake by GAGs [1]: effectively compete the uptake of R11

Molecule: pentosan sulfate
competition of R11 uptake by GAGs [1]: effectively compete the uptake of R11

Molecule: protamine sulfate
competition of R11 uptake by GAGs [1]: effectively compete the uptake of R11

interaction between Grb2 and SOS [12]: inhibited
B1: DOC-2/DAB2: native protein, expression plasmid transfection used as a positive control in pull-down (protein, UniProt P98082 2-770, looked up)
Disabled homolog 2: SNEVETSATNGQPDQQAAPKAPSKKEKKKGPEKTDEYLLARFKGDGVKYKAKLIGIDDVPDARGDKMSQDSMMKLKGMAAAGRSQGQHKQRIWVNISLSGIKIIDEKTGVIEHEHPVNKISFIARDVTDNRAFGYVCGGEGQHQFFAIKTGQQAEPLVVDLKDLFQVIYNVKKKEEEKKKIEEASKAVENGSEALMILDDQTNKLKSGVDQMDLFGDMSTPPDLNSPTESKDILLVDLNSEIDTNQNSLRENPFLTNGITSCSLPRPTPQASFLPENAFSANLNFFPTPNPDPFRDDPFTQPDQSTPSSFDSLKSPDQKKENSSSSSTPLSNGPLNGDVDYFGQQFDQISNRTGKQEAQAGPWPFSSSQTQPAVRTQNGVSEREQNGFSVKSSPNPFVGSPPKGLSIQNGVKQDLESSVQSSPHDSIAIIPPPQSTKPGRGRRTAKSSANDLLASDIFAPPVSEPSGQASPTGQPTALQPNPLDLFKTSAPAPVGPLVGLGGVTVTLPQAGPWNTASLVFNQSPSMAPGAMMGGQPSGFSQPVIFGTSPAVSGWNQPSPFAASTPPPVPVVWGPSASVAPNAWSTTSPLGNPFQSNIFPAPAVSTQPPSMHSSLLVTPPQPPPRAGPPKDISSDAFTALDPLGDKEIKDVKEMFKDFQLRQPPAVPARKGEQTSSGTLSAFASYFNSKVGIPQENADHDDFDANQLLNKINEPPKPAPRQVSLPVTKSTDNAFENPFFKDSFGSSQASVASSQPVSSEMYRDPFGNPFA
